Read-outs that look alike come from different tables or passages of the source.
Columns and labels:
human PARP1 = target: T1, human PARP1 (Homo sapiens, UniProt P09874); assay: PARP inhibitor assay (HT Fluorescent Homogeneous PARP Inhibition Assay Kit); assay type: biochemical; conditions: score
T1 construct: purchased Trevigen
In short: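 Human PARP1 with NAD and activated DNA, compounds at 10 μM final, 30 min at room temperature in dark. Resazurin/diaphorase cycling mix then added for 1 hr in dark before stop buffer; fluorescent homogeneous kit read-out.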

WI-38 cells = conditions: no H2O2 stress, 10 uM; negative control 0.41% ± 0.23%
Description: WI-38 cells were seeded on 384-well plates for 24 hrs and then incubated with small molecules for 24 hrs. […] Images were collected on an INCell Analyzer 2000 (GE) and analyzed with the Developer software.

C. elegans = C. elegans lifespan assays (liquid and plate); assay type: in vivo, Caenorhabditis elegans; conditions: for ILS at 60 µM / ILS at 66 µM: Caenorhabditis elegans; for O = Life span- extending scores in worms: score scale 0 to 2, 4 to 6 independent trials; for M = Lifespan-extending scores in worms: summary score
NRF2 = assay: qPCR analysis of NRF2-regulated genes; assay type: cell-based, human; conditions: for fold induction at 10 µM: Homo sapiens
In short: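 WI-38 cells treated with compound at 10 μM for 24 hrs, then processed by Cells-to-Ct for RNA isolation, RT and qPCR of NRF2-regulated genes (HMOX1, NQO1, GCLC, GSTM1). Expression normalized to B2M, PPIA and GAPDH; siRNA knockdown of FOXO3 or NRF2 (10 nM) preceded treatment in some runs.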

FOXO3 = assay: qPCR analysis of FOXO3-regulated genes; assay type: cell-based, human; conditions: for fold induction at 10 µM: Homo sapiens; for K = Sestrin induction: score
In short: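 WI-38 cells treated with compound at 10 μM for 24 h, followed by Cells-to-Ct RT-qPCR of FOXO3 target genes normalised to B2M, PPIA and GAPDH. FOXO3 or NRF2 dependence tested by prior 10 nM siRNA knockdown (36 h transfection, compound added ~24 h after replating).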

[1] = 60 μM, in liquid, wild type, with FuDR, 1.0 × 10^9 bacteria/ml, read-out: relative change of mean lifespan vs control, Trial 1
[2] = 60 μM, in liquid, wild type, with FuDR, 2.5 × 10^9 bacteria/ml, read-out: relative change of mean lifespan vs control, Trial 2
[3] = 60 μM, on plate, CF512 temperature-sensitive sterile animals, without FuDR, 2.0 × 10^10 bacteria/ml, read-out: relative change of mean lifespan vs control, Trial 3
[4] = Assay 2(z), 1.0 × 10^9 bacteria/ml, wild type + FuDR (2012 July), read-out: Lifespan assay in liquid
[5] = Assay 3(aa), 2.5 × 10^9 bacteria/ml, wild type + FuDR, read-out: Lifespan assay in liquid
[6] = Assay 4(ab), 2.0 × 10^10 bacteria/ml, CF512 worms, no FuDR, read-out: Lifespan assay on plates
[7] = 24 h, Assay 12(o), at 10 uM, qPCR, read-out: Induction of NRF2-regulated genes: GCLC normalized fold-change
[8] = 24 h, Assay 12(o), at 10 uM, qPCR, read-out: Induction of NRF2-regulated genes: NQO1 normalized fold-change
[9] = rounded fold change, WI-38 cells, 10 μM, 24 hrs (RP29 for Gr-4D), read-out: Summary of effects on NRF2-regulated genes: NQO1
[10] = rounded fold change, WI-38 cells, 10 μM, 24 hrs, read-out: Summary of effects on NRF2-regulated genes: GCLC
[11] = 10 μM, 24 hrs, WI-38 cells, qPCR, normalized to B2M, n = 4, read-out: GCLC expression, normalized fold change (NRF2-regulated gene)
[12] = 10 μM, 24 hrs, WI-38 cells, qPCR, normalized to B2M, n = 4, read-out: NQO1 expression, normalized fold change (NRF2-regulated gene)
[13] = WI-38 cells, 10 μM, 24 hrs, n=4, qPCR normalized by B2M, read-out: GCLC Normalized fold change
[14] = WI-38 cells, 10 μM, 24 hrs, n=4, qPCR normalized by B2M, read-out: GSTM1 Normalized fold change
[15] = WI-38 cells, 10 μM, 24 hrs, n=4, qPCR normalized by B2M, read-out: HMOX1 Normalized fold change
[16] = WI-38 cells, 10 μM, 24 hrs, n=4, qPCR normalized by B2M, read-out: NQO1 Normalized fold change
[17] = WI-38 cells, 10 μM, 24 hrs, n=4, qPCR normalized by B2M, read-out: DDB1 Normalized fold change
[18] = WI-38 cells, 10 μM, 24 hrs, n=4, qPCR normalized by B2M, read-out: GADD45A Normalized fold change
[19] = WI-38 cells, 10 μM, 24 hrs, n=4, qPCR normalized by B2M, read-out: SESN1 Normalized fold change
[20] = qPCR, WI-38 cells, 10 μM, n=4, 24 hrs, normalized by B2M, read-out: CAT Normalized fold change
[21] = qPCR, WI-38 cells, 10 μM, n=4, 24 hrs, normalized by B2M, read-out: SOD2 Normalized fold change
[22] = qPCR, WI-38 cells, 10 μM, n=4, 24 hrs, normalized by B2M, read-out: TXNIP Normalized fold change

T1 sequence (P09874 whole entry): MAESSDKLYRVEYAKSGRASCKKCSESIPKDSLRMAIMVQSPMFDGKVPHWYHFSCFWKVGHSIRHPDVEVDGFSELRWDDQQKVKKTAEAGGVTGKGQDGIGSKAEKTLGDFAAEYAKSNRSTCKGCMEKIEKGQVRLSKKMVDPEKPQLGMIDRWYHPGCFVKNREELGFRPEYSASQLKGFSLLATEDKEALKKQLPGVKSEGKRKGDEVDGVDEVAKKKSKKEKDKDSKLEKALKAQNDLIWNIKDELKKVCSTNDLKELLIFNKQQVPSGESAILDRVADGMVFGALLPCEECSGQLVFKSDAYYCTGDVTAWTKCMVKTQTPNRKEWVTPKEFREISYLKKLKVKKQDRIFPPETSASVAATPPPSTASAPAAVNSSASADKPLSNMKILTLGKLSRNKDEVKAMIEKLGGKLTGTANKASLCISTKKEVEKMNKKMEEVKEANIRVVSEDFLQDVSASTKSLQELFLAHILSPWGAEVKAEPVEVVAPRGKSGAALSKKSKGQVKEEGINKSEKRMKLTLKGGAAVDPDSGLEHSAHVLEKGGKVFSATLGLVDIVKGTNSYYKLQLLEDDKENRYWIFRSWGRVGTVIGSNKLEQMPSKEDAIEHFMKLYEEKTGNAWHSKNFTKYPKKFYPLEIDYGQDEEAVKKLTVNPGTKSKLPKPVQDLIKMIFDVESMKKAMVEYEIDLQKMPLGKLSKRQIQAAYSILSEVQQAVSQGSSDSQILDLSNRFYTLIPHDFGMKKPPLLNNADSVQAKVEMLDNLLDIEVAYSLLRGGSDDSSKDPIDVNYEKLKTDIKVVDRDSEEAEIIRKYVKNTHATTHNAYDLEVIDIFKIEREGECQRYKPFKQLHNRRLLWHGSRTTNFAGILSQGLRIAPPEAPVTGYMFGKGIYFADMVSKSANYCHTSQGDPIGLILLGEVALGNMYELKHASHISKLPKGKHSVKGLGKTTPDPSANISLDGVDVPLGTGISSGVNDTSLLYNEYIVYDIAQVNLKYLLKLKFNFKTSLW

[O-][n+]1onc2c3nsnc3c(Br)cc21 [O17]
L = PARP inhibition (human PARP1): 0
Percentage of propidium iodide-positive dead cells (no H2O2 stress treatment), at 10 uM (WI-38 cells): 0.56% ± 0.25%,
relative change of mean lifespan vs control, Trial 6 (confirmative) (C. elegans; 60 μM, on plate, temperature-sensitive sterile animals, without FuDR, 1.0 × 10^11 bacteria/ml): +20.8%
relative change of mean lifespan vs control, Trial 5 (confirmative) (C. elegans; 60 μM, on plate, temperature-sensitive sterile animals, without FuDR, 2.0 × 10^10 bacteria/ml): +15.2%
ILS at 60 µM (C. elegans; [1]): 1.7%
ILS at 60 µM (C. elegans; [2]): 22.6%
ILS at 60 µM (C. elegans; 60 μM, on plate, CF512 temperature-sensitive sterile animals, without FuDR, 1.0 × 10^11 bacteria/ml, read-out: relative change of mean lifespan vs control, Trial 4): 17.8%
ILS at 60 µM (C. elegans; [3]): 19.7%
ILS at 66 µM (C. elegans; [4]): 1.7%
ILS at 66 µM (C. elegans; [5]): 22.6%
ILS at 66 µM (C. elegans; [6]): 19.7%
ILS at 66 µM (C. elegans; Assay 5(ac), 1.0 × 10^11 bacteria/ml, CF512 worms, no FuDR, read-out: Lifespan assay on plates): 17.8%
ILS at 66 µM (C. elegans; Assay 6(ad), 2.0 × 10^10 bacteria/ml, CF512 worms, no FuDR, read-out: Lifespan assay on plates): 15.2%
ILS at 66 µM (C. elegans; Assay 7(ae), 1.0 × 10^11 bacteria/ml, CF512 worms, no FuDR, read-out: Lifespan assay on plates): 20.8%
Extension of C. elegans' lifespan (qualitative) (C. elegans; in at least 3 to 4 trials, group range ~10% to ~50%): could extend animal's lifespan
O = Life span- extending scores in worms (C. elegans): 2 (2 for observed in more than 2 trials)
M = Lifespan-extending scores in worms (C. elegans): 2 (2 for observed in more than 2 trials)
Induction of at least two NRF2-regulated genes (HMOX1, NQO1, GCLC, GSTM1) (NRF2; 10 μM, 24 hrs, WI-38): could induce expression of at least two genes
F = Potential NRF2 Activation (NRF2; 2-point score): 0
fold induction at 10 µM (NRF2; [7]): 1.36
fold induction at 10 µM (NRF2; [8]): 1.47
fold induction at 10 µM (NRF2; [9]): 1.47
fold induction at 10 µM (NRF2; [10]): 1.36
fold induction at 10 µM (NRF2; [11]): 1.36
fold induction at 10 µM (NRF2; [12]): 1.47
fold induction at 10 µM (NRF2; [13]): 1.35
fold induction at 10 µM (NRF2; [14]): 1.12
fold induction at 10 µM (NRF2; [15]): 1.08
fold induction at 10 µM (NRF2; [16]): 1.47
F = Potential NRF2 Activation (NRF2; summary score): 0
E = Potential FOXO3 Activation (FOXO3; 2-point score): 0
fold induction at 10 µM (FOXO3; 24 h, Assay 10(m), at 10 uM, qPCR, read-out: Induction of FOXO3-regulated genes: GADD45A normalized fold-change): 0.85
fold induction at 10 µM (FOXO3; 10 μM, 24 hrs, WI-38 cells, qPCR, normalized to B2M, n = 4, read-out: GADD45A expression, normalized fold change (FOXO3-regulated gene)): 0.85
fold induction at 10 µM (FOXO3; [17]): 1.04
fold induction at 10 µM (FOXO3; [18]): 0.846
fold induction at 10 µM (FOXO3; [19]): 1.11
fold induction at 10 µM (FOXO3; fold change, qPCR, WI-38 cells, 10 μM, 24 hrs, read-out: Summary of effects on FOXO3-regulated genes: GADD45A): 0.85
fold induction at 10 µM (FOXO3; [20]): 1.11
fold induction at 10 µM (FOXO3; [21]): 0.997
fold induction at 10 µM (FOXO3; [22]): 0.801
K = Sestrin induction (FOXO3): 0
E = Potential FOXO3 Activation (FOXO3; summary score): 0

Cc1cc(C)c(C(=O)/C=C/c2ccccc2F)c(O)n1 [O18]
L = PARP inhibition (human PARP1): 0
Percentage of propidium iodide-positive dead cells (no H2O2 stress treatment), at 10 uM (WI-38 cells): 0.36% ± 0.16%,
ILS at 60 µM (C. elegans; [1]): 22.1%
ILS at 60 µM (C. elegans; [2]): 11.8%
ILS at 60 µM (C. elegans; [3]): 3.8%
ILS at 66 µM (C. elegans; [4]): 22.1%
ILS at 66 µM (C. elegans; [5]): 11.8%
ILS at 66 µM (C. elegans; [6]): 3.8%
O = Life span- extending scores in worms (C. elegans): 1 (1 for lifespan extension observed in 2 trials)
M = Lifespan-extending scores in worms (C. elegans): 1 (1 for lifespan extension observed in 2 trials)
F = Potential NRF2 Activation (NRF2; 2-point score): 2
Potential NRF2 Activation (>=2 target genes induced, by >=1.5-fold) (NRF2; Assay 13(p)): YES
fold induction at 10 µM (NRF2; [7]): 2.1
fold induction at 10 µM (NRF2; 24 h, Assay 12(o), at 10 uM, qPCR, read-out: Induction of NRF2-regulated genes: GSTM1 normalized fold-change): 1.52
fold induction at 10 µM (NRF2; 24 h, Assay 12(o), at 10 uM, qPCR, read-out: Induction of NRF2-regulated genes: HMOX1 normalized fold-change): 23.8
fold induction at 10 µM (NRF2; [8]): 2.94
fold induction at 10 µM (NRF2; rounded fold change, WI-38 cells, 10 μM, 24 hrs (RP11 for Gr-1D, RP29 for Gr-4D), read-out: Summary of effects on NRF2-regulated genes: HMOX1): 23.8
fold induction at 10 µM (NRF2; rounded fold change, WI-38 cells, 10 μM, 24 hrs (RP29 for Gr-4D), read-out: Summary of effects on NRF2-regulated genes: GSTM1): 1.52
fold induction at 10 µM (NRF2; [9]): 2.94
fold induction at 10 µM (NRF2; [10]): 2.1
fold induction at 10 µM (NRF2; 10 μM, 24 hrs, WI-38, read-out: Expression of at least two NRF2 target genes): > 1.5
fold induction at 10 µM (NRF2; [11]): 2.1
fold induction at 10 µM (NRF2; 10 μM, 24 hrs, WI-38 cells, qPCR, normalized to B2M, n = 4, read-out: GSTM1 expression, normalized fold change (NRF2-regulated gene)): 1.52
fold induction at 10 µM (NRF2; 10 μM, 24 hrs, WI-38 cells, qPCR, normalized to B2M, n = 4, read-out: HMOX1 expression, normalized fold change (NRF2-regulated gene)): 23.8
fold induction at 10 µM (NRF2; [12]): 2.94
fold induction at 10 µM (NRF2; [13]): 2.1
fold induction at 10 µM (NRF2; [14]): 1.52
fold induction at 10 µM (NRF2; [15]): 23.8
fold induction at 10 µM (NRF2; [16]): 2.94
F = Potential NRF2 Activation (NRF2; summary score): 2
E = Potential FOXO3 Activation (FOXO3; 2-point score): 0
fold induction at 10 µM (FOXO3; 24 h, Assay 10(m), at 10 uM, qPCR, read-out: Induction of FOXO3-regulated genes: TXNIP normalized fold-change): 0.3
fold induction at 10 µM (FOXO3; 10 μM, 24 hrs, WI-38 cells, qPCR, normalized to B2M, n = 4, read-out: TXNIP expression, normalized fold change (FOXO3-regulated gene)): 0.3
fold induction at 10 µM (FOXO3; [17]): 1.33
fold induction at 10 µM (FOXO3; [18]): 0.861
fold induction at 10 µM (FOXO3; [19]): 1.06
fold induction at 10 µM (FOXO3; fold change, qPCR, WI-38 cells, 10 μM, 24 hrs, read-out: Summary of effects on FOXO3-regulated genes: TXNIP): 0.3
fold induction at 10 µM (FOXO3; [20]): 1.47
fold induction at 10 µM (FOXO3; [21]): 1.04
fold induction at 10 µM (FOXO3; [22]): 0.297
K = Sestrin induction (FOXO3): 0
E = Potential FOXO3 Activation (FOXO3; summary score): 0

Reference: patent US11413278B2, “Compounds and methods for promoting stress resistance” (priority 2015, dated 2022)
